Measured values published in patent US10632106B2, “Methods of cancer treatment with 2-(1′H-Indole-3′-carbonyl)-thiazole-4-carboxylic acid methyl ester” (Ariagen, Inc., priority 2009, dated 2020).

Legend:
Assay type in all cases: in vivo
[1] = tested on: HCT116 (human colon cancer) xenografts; assay: HCT116 xenograft growth inhibition; details: ITE 100-200 mg/kg i.p. once daily
Protocol: (§1) All the procedures related to animal handling, care, and the treatment in the study were performed following guidelines of KeyGen Biotechn Co., Ltd. (Nanjing, China), a contract research organization we hired, based on the guidance of the Association for Assessment and Accreditation of Laboratory Animal Care (AAALAC). Animals were checked for any effects of tumor growth and drug treatment on normal behavior such as mobility, food and water consumption, body weight gain/loss (bodyweights were measured every two days), eye/hair matting, and any other abnormal effect. Death and observed clinical signs were recorded. Individual animals with a tumor volume exceeding 3,000 mm^3 or animals of a group with a mean tumor volume exceeding 2,000 mm^3 were euthanized. In addition, animals showing signs of severe distress and/or pain or losing the capability of accessing adequate food or water were humanely sacrificed.
(§2) Cell lines HCT116, Siha, MFC were cultured in DMEM medium (high glucose) supplemented with 10% fetal bovine serum (FBS), SW116 and T24 in RPMI-1640 medium with 10% FBS, M14 and A375 in DMEM medium (high glucose) with 10% calf serum (CS), SGC7901 and Ketr-3 in RPMI-1640 medium with 10% CS, and CFPAC-1 in IMDM medium with 10% FBS. All of the cells were cultured, in the presence of 100 U/ml penicillin and 100 μg/ml streptomycin, at 37° C. in an atmosphere of 5% CO2 in air. […] The cells growing in an exponential phase were harvested and counted for tumor inoculation. Cell lines 5180 and U14 were maintained in ascites (peritoneal cavity fluid) of mice and were harvested and counted for tumor inoculation. […]
(§3) Tumor volume was measured every two days in two dimensions using a caliper and the volume was calculated with a formula of: V=0.5 a×b^2, where a and b are the long and short diameter (in mm) of a tumor, respectively. […] The TGD was calculated as: TGD=T−C, where T was the time (in days) required for tumors in a drug treated group to reach a predetermined mean tumor volume and C the time (in days) in the control group to reach the same volume. […]

[2] = tested on: SW116 (human colon cancer) xenografts; assay: SW116 xenograft growth inhibition; details: ITE 100-200 mg/kg i.p. once daily
Protocol: as §1, §2, §3

[3] = tested on: CFPAC-1 (human pancreatic cancer) xenografts; assay: CFPAC-1 xenograft growth inhibition; details: ITE 100-200 mg/kg i.p. once daily
Protocol: as §1, §2, §3

[4] = Mouse cancer model studies of Example 5, all models: animal death; details: any model, entire therapies; with oral gavage of 20 ml/kg water
Protocol: as §1
Each mouse was inoculated subcutaneously in right armpit with about 1×10^6 cells in 0.1 ml of PBS for tumor development. While cells of human in origin were inoculated into female BALB/c nude mice, MFC cells were inoculated into female 615 mice and U14 and 5180 cells into female ICR mice. When a mean tumor volume reached 50 to 150 mm^3 as indicated, the tumor-bearing mice were divided randomly into vehicle control and ITE treatment group. […]

[5] = end of therapy relative to beginning

SMILES: COC(=O)c1csc(C(=O)c2c[nH]c3ccccc23)n1 [ITE, 2-(1′H-indole-3′-carbonyl)-thiazole-4-carboxylic acid methyl ester]
- TGD ([1]; TGD at Vol. 1,000): 3 days
- TGI (%) ([1]; TGI at day 18, TGI=(1−ΔT/ΔC)×100%): 41%
- Weight Loss [1, 5]: 9%
- TGD ([2]; TGD at Vol. 1,000): 9 days
- TGI (%) ([2]; TGI at day 20, TGI=(1−ΔT/ΔC)×100%): 67%
- Weight Loss [2, 5]: 15%
- TGD ([3]; TGD at Vol. 1,000): 8 days
- TGI (%) ([3]; TGI at day 26, TGI=(1−ΔT/ΔC)×100%): 58%
- Weight Loss [3, 5]: 14%
- animal death in ITE treatment group [4]: no single animal death
